# In US20120277171A1, “Warmi®, natural alternative for the treatment of menopause” (priority 2011, published 2012):
# Tests used:
# [1] = tested on: TNF-α, INF-y and IL-6 cytokines; experiment: Clinical trial: cytokine count; format: in vivo, human
# Description: Peripheral blood samples were obtained in vacutainer test tubes with anticoagulant (Becton Dickenson, BD). The biological sample was previously centrifuged and stored at a −70° C. for the respective cytokine count. Type Th1: TNF-α, INF-y and Th2: IL-6 cytokines were counted. The manufacturer's instructions were followed and the cytokine concentrations were calculated according to the specifications (Pharmingen, BD). Cytokines were measured prior to and upon conclusion of the treatment.
# (§1) The levels of cytokines, osteocalcin, growth hormone and C-reactive protein were measured in the Laboratory of the Molecular Biotechnology Unit of the Research and Development Laboratories of the Universidad Peruana Cayetano Heredia (UPCH). All laboratory procedures were conducted in duplicate, standards were used to ensure the reproducibility and quality of the results.
# [2] = human, in vivo
# Description: (§2) Prospective, longitudinal, double blind, three stage, comparative clinical and laboratory evaluation trials on symptomatic postmenopausal women who attended the menopause medical units of the Hospital Nacional Cayetano Heredia, Hospital Nacional Arzobispo Loayza, Hospital Docente Madre Niño San Bartolomé and the medical unit of the Universidad Nacional Agraria La Molina.
# (§3) Warmi® capsules (510 mg) were manufactured by Laboratorios Hersil S.A. Capsules were manufactured following Good Manufacturing Practices (GMP) and following the Hazard Analysis and Critical Control Points (HACCP). Warmi® is a natural proprietary blend composed of β-sitosterol, glucosinolates and citrus flavonoids (hesperidin). […] Patients received 3 capsules a day to be taken every 6 hours.
# Tibolone was used as HRT. Tibolone was masked in a capsule with the same appearance as the previous groups. Patients received 3 capsules a day to be taken every 6 hours. […]
# The statistical analysis was done using a SPSS statistical package (version 11.0). The results were expressed as a mean±standard error (SE), and a p<0.05 was considered significant. The variables were analyzed as a change in relation to the basal level and compared by treatment groups.
# There was a small decrease in the hematocrit (1.43%) of the placebo group. […] Upon observing the other quantifiable parameters, no significant changes are noticed.
# [3] = tested on: triglycerides (TG), total cholesterol (TC), HDL, LDL and serum glucose levels; experiment: Clinical trial: lipids and glucose count; format: in vivo, human
# Description: The triglycerides (TG), total cholesterol (TC), HDL, LDL and serum glucose levels (Valtek S.A.) were measured based on a peripheral blood test prior to the start of the treatment, at months 1, 3 and 6 following treatment. TG, TC and HDL levels were measured with a MicroLab semiautomatic analyzer, through an enzymatic colorimetric technique, using the manufacturer's manual and procedures. Normal values shall be TC<200 mg/dL, HDL>35 mg/dL, LDL<130 mg/dL and TG<170 mg/dL.
# [4] = Clinical trial: anthropometric parameters and vital signs; format: in vivo, human; conditions: mean ± SD
# Description: as §2, §3
# Tibolone was used as HRT. Tibolone was masked in a capsule with the same appearance as the previous groups. Patients received 3 capsules a day to be taken every 6 hours. Tibolone is the latest treatment for menopausal symptoms in Peru. Tibolone is a synthetic steroid with estrogenic, progestogenic and androgenic activity, used for the treatment of menopausal symptoms and post-menopausal osteoporosis. It has been observed that Tibolone reduces the level of triglycerides, HDL, total cholesterol and with no effect on the LDL.
# The sample group was integrated by symptomatic postmenopausal women who attend the menopause centers of the participating hospitals. 135 participants were accepted in the study and each hospital recruited the patients that were randomly assigned to the three treatment groups: Warmi®, Tibolone and placebo.
# The statistical analysis was done using a SPSS statistical package (version 11.0). […] The variables were analyzed as a change in relation to the basal level and compared by treatment groups.
# C-reactive protein = experiment: Clinical trial: C-reactive protein (ELISA); format: in vivo, human; conditions: after 6 months of treatment
# Description: C-reactive protein from human plasma (Diagnostic Automation Inc., USA) was tested with a very sensitive ELISA using a monoclonal antibody against a different antigenic determinant on the C-Reactive Protein molecule, with a sensitivity of […]. C-reactive protein (CRP) was measured prior to treatment and after 6 months of treatment, according to the manufacturer's instructions.
# as §1
# [5] = tested on: symptomatic postmenopausal women; experiment: Greene Climateric Scale; format: in vivo, human; conditions: FIGS. 31-35
# Description: The changes are observed in sub-categories of Anxiety, Depression, Vasomotor Symptoms and Sexual Aspects.
# human osteocalcin = experiment: Clinical trial: plasma osteocalcin (EASIA); format: in vivo; conditions: after 6 months of treatment; FIG. 13
# Description: Plasma osteocalcin was measured through the EASIA technique (Enzyme Amplified Sensitivity Immunoassay) using monoclonal antibodies against different epitopes of human osteocalcin (Biosource International, Inc., USA), with a sensitivity of 0.4 ng/mL. Human osteocalcin was measured at the beginning of the treatment and after 6 months of treatment, according to the manufacturer's instructions.
# as §1
# [6] = tested on: FSH, LH, estradiol, progesterone and DHEAS; experiment: Clinical trial: hormone count in serum (immunochemical luminescence); format: in vivo, human; conditions: for reduction of FSH: FIG. 2
# Description: Laboratory tests were requested prior to the beginning of the treatments (basal levels) and after 3 and 6 months. The levels of the following hormones were measured in the Laboratory of the Molecular Biotechnology Unit of the Research and Development Laboratories of the Universidad Peruana Cayetano Heredia: FSH, LH, estradiol, progesterone and DHEAS. The following normal menopausal values shall be considered: FSH of between 25.0 and 134.8 mlU/mL, LH of between 7.7 and 58.5 mlU/mL, estradiol between <10.0 and 39.5 pg/mL and progesterone between 0.20 and 1.00 ng/mL.
# In order to determine the hormonal levels, a peripheral blood test was taken from each patient on an empty stomach and the serum FSH, LH, estradiol, progesterone and DHEAS levels were taken using the immunochemical luminescence method, following the standardized procedures of the laboratory.
structure (smiles),measurement,setting,value
C#C[C@]1(O)CC[C@H]2[C@@H]3[C@H](C)CC4=C(CCC(=O)C4)[C@H]3CC[C@@]21C [Tibolone],effect on interferon gamma (INF-y) (in words),"[1]; FIG. 16, none were significant",slight increases
same,effect on Interleukin 6 (IL-6) levels (in words),"[1]; FIG. 17, Tibolone: after 3 months alone, Warmi: after both treatment periods",significantly reduced
same,increase in the hematocrit,[2],3.53%
same,effect on triglycerides levels (in words),[3]; FIG. 8,significant decrease
same,effect on HDL levels (in words),"[3]; FIG. 9, Tibolone: after 1, 3 and 6 months of treatment",significant reduction
same,effect on LDL levels (in words),[3]; FIG. 10,significant reduction
same,effect on LDL/HDL ratio (in words),"[3]; FIG. 12, Tibolone: after six months, Warmi: after both 3 and 6 months",reduction
same,reduction of total cholesterol,"[3]; after six months of treatment, FIG. 7",12.37%
same,reduction in the level of glycemia,"[3]; at the end of the study, FIG. 6",7.39%
same,Diastolic BP,[4]; 3rd Month,72.5 ± 10.83
same,Heart Rate,[4]; 3rd Month,63.66 ± 1.96
same,Pulse Pressure,[4]; 3rd Month,64 ± 1.78
same,Respiratory Rate,[4]; 3rd Month,16.33 ± 0.98
same,Systolic BP,[4]; 3rd Month,113.33 ± 8.16
same,Diastolic BP,[4]; 6th Month,73.16 ± 11.4
same,Heart Rate,[4]; 6th Month,62.67 ± 2.42
same,Pulse Pressure,[4]; 6th Month,62.67 ± 2.42
same,Systolic BP,[4]; 6th Month,110 ± 8.98
same,Respiratory Rate,"[4]; 6th Month, *p ≦ 0.05",16.16 ± 0.41
same,increase of CRP (change in percentage),C-reactive protein,26.83%
same,"Greene survey: sub-categories Anxiety, Depression, Vasomotor Symptoms and Sexual Aspects (in words)",[5],Changes were also observed
same,effect on osteocalcin levels (in words),human osteocalcin,significant reduction
same,reduction of FSH,[6]; month six of treatment,16.20%
same,reduction of FSH,[6]; month three of treatment,29.58%
same,drop of DHEAS in serum,"[6]; month three, FIG. 3",12.87%
same,decrease of progesterone,"[6]; month three, FIG. 4",29.70%
